For series [1] the following is noted: i.v. AP; cited from earlier work.
The test system of series [2] is dissociated hypothalamic cells (medial preoptic area). Description: Perforated patch recording of spontaneous miniature inhibitory postsynaptic currents (mIPSCs). It is filed as cell-based, rat. Conditions: 30 and 100 nM AP, holding potential −11 mV, n = 5, p < 0.05. As for the experimental part:
For the patch clamp studies, male Sprague-Dawley rats (n = 5, weight < 130 g) were housed at two or four rats per cage at 22 °C and with artificial daylight. Rats had free access to water and standard food. The regional ethics committee for animal research approved the experimental protocols. All procedures including animals were conducted in accordance with the ethical guidelines set by the European Union Directive 2010/63/EU for animal experiments.
Electrophysiological experiments: The methods used for electrophysiological recording and cell preparation have been described in detail elsewhere. A summary of the procedures is given below. […]
Protocol and analysis: A standard protocol was used for the experiments. Firstly, the current was recorded in the control solution (EC solution) for 30–60 s, followed by a 60–300 s test period with or without AP. The spontaneous miniature inhibitory postsynaptic currents (mIPSCs) were detected by visual inspection of current changes. […] The time-course and amplitude of the currents were measured semi-manually by using cursors and were fitted to an exponential decay curve by the curve-fitting routine of the pCLAMP software (Axon Instruments, Foster City, CA, USA). […] All the mIPSC values from the treatment period of the recorded cell (n = 6–11 events) were pooled and the mean was subjected to statistical analysis. […]

Series [3] addresses T1, human α5β3γ2L GABAA receptors expressed in HEK-293 cells (Homo sapiens, UniProt P28472+P31644).
T1 construct: The coding regions of the human GABAA receptor subunits were then amplified by PCR; expressed in transfected cells; host or cells: HEK-293 (permanently transfected, pcDNA3.1 vectors, CMV promoter)
The series can be described thus: Whole-cell patch clamp of GABA/THDOC-evoked currents, extra-synaptic protocol (Dynaflow). The series is classed as cell-based. From the text:
Wild-type HEK-293 cells (passage 4, originating from Pasteur Institute, Paris, France) were permanently transfected with vectors including the human CMV promoter for the constitutive expression of the human α5, β3, and γ2L GABAA receptor subunits (α5β3γ2L) or the human α1, β2, and γ2L GABAA receptor subunits (α1β2γ2L). The production of the plasmids used in the sub-cloning of the different subunits is published in Rahman et al..
The electrophysiological recordings from HEK-293 cells were performed with the whole-cell voltage clamp technique, at room temperature (21–23 °C). After compensation for liquid junction potential, a steady holding potential of −17 mV was used in all experiments. Patch pipettes were pulled from borosilicate glass (Bergman Labora AB, Danderyd, Sweden) and polished to a resistance of 2–5 MΩ when filled with intracellular solution and immersed in a bath (extracellular) solution (for solutions, see below). The pipette tips were filled by immersion in standard intracellular solution and subsequent back-filling with intracellular solution. The recordings were made using an Axopatch 200B amplifier and a Digidata 1322A (Axon Instruments, Foster City, CA, USA) controlled via a Pentium processor-based personal computer. Data were acquired using the pCLAMP software sampled at 10 kHz, filtered at 2–10 kHz, and analyzed with Clampfit (versions 9.0, both from Axon Instruments, Foster City, CA, USA). A series resistance between the pipette and cell membrane not higher than 20 MΩ was accepted. No series resistance compensation was used. The stability of series resistance was monitored repeatedly from the time course of capacitative transients during the experiments. The measured liquid junction potential between extracellular and intracellular solutions was subtracted from all data presented, as previously described. All experiments were performed at room temperature (21–23 °C).
In all electrophysiological experiments, tetrahydro-deoxycorticosterone (THDOC) was used as a positive GABAA receptor steroid modulator (PAM) to mimic the effect of AP on central GABAA channels. […] THDOC (Sigma Chemical Co., St. Louis, MO, USA) and GR3027 (3α-ethynyl, 3β-hydroxyl, 5α-androstan-17-oxime, golexanolone, Umecrine Cognition AB, Stockholm, Sweden) were dissolved in dimethyl sulfoxide (DMSO) using ultrasound, for the preparation of solutions containing a final DMSO concentration of 0.1%. GR3027 was discovered within a series of molecules developed and patented by T. Bäckström and G. Ragagnin, (patent WO 2008/063128). All solutions were complemented with DMSO to achieve the same final concentration as in the steroid-containing test solution. GABA (Sigma Chemical Co., St. Louis, MO, USA) was first prepared as a stock solution (dissolved in EC with ultrasonic treatment) to the desired concentrations, with the corresponding final concentrations of test solutions (30 µM and 0.3 µM; see protocols below). GABA was added to the experimental solution without a change in osmolarity.
The experimental protocols were designed to mimic the physiological conditions of the tonic (extra-synaptic) and phasic (synaptic) activation of GABAA receptors observed in central neurons, depending on the subunit compositions, respectively. GABA-evoked currents in HEK-293 cells expressing extra-synaptic (α5β3γ2L) or synaptic (α1β2γ2L) types of GABAA receptors were studied using the conventional whole-cell patch clamp technique. To mimic the physiological GABA exposure, the HEK-293 cells expressing α1β2γ2L GABAA receptors were exposed to short applications (40 ms) of 30 µM GABA, whereas HEK-293 cells expressing α5β3γ2L GABAA receptors were exposed to prolonged applications (6 s) of 0.3 µM GABA, either in the absence or presence of THDOC and/or GR3027.

pEC50: −log10 of the molar value.

Consider two molecules from article PMC10604444, “Extra-Synaptic GABAA Receptor Potentiation and Neurosteroid-Induced Learning Deficits Are Inhibited by GR3027, a GABAA Modulating Steroid Antagonist” (Biomolecules, 2023).

T1 sequence (P31644 32-462): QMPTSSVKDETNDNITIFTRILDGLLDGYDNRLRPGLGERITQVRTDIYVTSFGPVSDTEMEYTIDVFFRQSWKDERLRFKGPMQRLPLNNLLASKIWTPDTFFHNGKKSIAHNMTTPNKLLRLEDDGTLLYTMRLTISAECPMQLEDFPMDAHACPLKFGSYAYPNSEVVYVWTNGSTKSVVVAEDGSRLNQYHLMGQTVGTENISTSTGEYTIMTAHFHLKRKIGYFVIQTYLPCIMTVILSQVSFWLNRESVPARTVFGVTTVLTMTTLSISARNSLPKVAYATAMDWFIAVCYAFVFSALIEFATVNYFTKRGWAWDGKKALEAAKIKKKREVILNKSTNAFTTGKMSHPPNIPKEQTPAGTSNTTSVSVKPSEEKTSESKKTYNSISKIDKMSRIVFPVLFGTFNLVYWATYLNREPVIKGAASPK
T1 sequence (P28472 26-473 isoform P28472-2 limits assumed): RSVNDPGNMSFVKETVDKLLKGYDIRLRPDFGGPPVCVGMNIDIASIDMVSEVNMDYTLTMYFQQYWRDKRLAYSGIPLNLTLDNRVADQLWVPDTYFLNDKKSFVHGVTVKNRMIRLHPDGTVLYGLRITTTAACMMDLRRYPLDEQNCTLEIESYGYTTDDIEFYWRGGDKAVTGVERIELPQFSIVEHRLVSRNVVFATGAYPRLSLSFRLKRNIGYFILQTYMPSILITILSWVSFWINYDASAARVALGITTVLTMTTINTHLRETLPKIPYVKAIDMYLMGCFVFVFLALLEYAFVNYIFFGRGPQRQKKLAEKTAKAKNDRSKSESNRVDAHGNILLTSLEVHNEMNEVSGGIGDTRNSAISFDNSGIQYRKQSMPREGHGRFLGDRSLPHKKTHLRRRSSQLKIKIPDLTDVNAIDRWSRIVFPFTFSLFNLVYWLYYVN
T1 sequence (P18507 40-475 partner): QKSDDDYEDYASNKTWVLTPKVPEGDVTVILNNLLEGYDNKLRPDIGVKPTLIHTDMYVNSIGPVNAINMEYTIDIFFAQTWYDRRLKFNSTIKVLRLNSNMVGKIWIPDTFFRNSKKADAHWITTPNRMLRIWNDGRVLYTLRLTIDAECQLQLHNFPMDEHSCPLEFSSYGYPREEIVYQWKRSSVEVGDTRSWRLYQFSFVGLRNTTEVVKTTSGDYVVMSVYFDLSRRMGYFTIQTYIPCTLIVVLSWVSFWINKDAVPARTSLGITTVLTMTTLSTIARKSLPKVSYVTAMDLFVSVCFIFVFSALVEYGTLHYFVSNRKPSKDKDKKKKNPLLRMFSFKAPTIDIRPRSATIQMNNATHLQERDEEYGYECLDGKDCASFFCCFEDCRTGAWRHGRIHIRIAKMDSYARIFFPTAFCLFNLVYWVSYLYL

`CC(=O)[C@H]1CC[C@H]2[C@@H]3CC[C@H]4C[C@H](O)CC[C@]4(C)[C@H]3CC[C@]12C` [AP, 3α-OH-5α-pregnan-20-one]: the “Concentration in brain tissue after i.v. injections giving acute memory and learning disturbances” value in series [1] is 1 to 2 µM. Further, the “AUC of spontaneous miniature inhibitory postsynaptic currents vs vehicle” value in series [2] is reported as “significantly higher”.

In the case of `C[C@]12CC[C@@H](O)C[C@@H]1CC[C@@H]1[C@@H]2CC[C@]2(C)[C@@H](C(=O)CO)CC[C@@H]12` [THDOC, 3α,21-dihydroxy-5α-pregnan-20-one, reference compound], the pEC50 in series [3] (EC50 of THDOC effect (outward shift in baseline holding current, direct activation), THDOC 30-300 nM, 0.3 µM GABA 6 s protocol, holding potential −17 mV) is 7.49; in series [3] (THDOC EC50, enhancement of GABA-evoked peak amplitude, THDOC 0.01-1 µM + 0.3 µM GABA + 1 µM GR3027), 6.66; in series [3] (THDOC EC50, enhancement of GABA-evoked peak amplitude, THDOC 0.01-1 µM + 0.3 µM GABA + 3 µM GR3027), 6.46; in series [3] (THDOC EC50, enhancement of GABA-evoked peak amplitude, THDOC 0.01-1 µM + 0.3 µM GABA, no GR3027), 6.72. Further, the “THDOC Emax, % change in peak amplitude at 0.3 µM GABA” value is 489% in series [3] (THDOC 0.01-1 µM + 0.3 µM GABA + 1 µM GR3027); 482% in series [3] (THDOC 0.01-1 µM + 0.3 µM GABA + 3 µM GR3027); 687% in series [3] (THDOC 0.01-1 µM + 0.3 µM GABA, no GR3027). The “Emax of THDOC effect (outward shift in baseline holding current, direct activation)” value in series [3] (THDOC 30-300 nM, 0.3 µM GABA 6 s protocol) was 145%.
